Measurements published in patent US8889370B2, “Method of determining inhibitors of coagulation” (Siemens Healthcare Diagnostics Products GmbH, priority 2010, dated 2014).
pKi: −log10 of the molar value. Like-named read-outs stand apart in the source and are kept apart here.

Biological target: T1, factor Xa (Homo sapiens, UniProt P00742)
T1 construct: an F Xa reagent consisting of a lyophilized plasma fraction containing factor Xa; purchased Siemens Healthcare Diagnostics (Berichrom heparin assay, F Xa reagent); host or cells: plasma fraction
Assay: Determination of the F Xa binding constant (Ki) of peptide aldehyde ligands, chromogenic assay with Berichrom heparin assay reagents, Dixon plot
Type: biochemical
Description: The kinetic data of the peptide aldehyde ligands were determined in chromogenic assay formats by measuring the rate of hydrolysis of chromogenic peptide substrates which compete with the peptide aldehyde ligands for binding to the active site of the particular enzyme, at various substrate concentrations and peptide aldehyde-ligand concentrations. The binding constant (Ki) was determined by a known method (Dixon, M., 1953, Biochem J, 55, 170-171).
The F Xa binding constant was determined using the reagents of the Berichrom® heparin assay from Siemens Healthcare Diagnostics. The Berichrom® heparin assay consists of: an F Xa reagent consisting of a lyophilized plasma fraction containing factor Xa, and additives such as Tris, NaCl, EDTA and preservatives, a chromogenic substrate reagent (Z-D-Leu-Gly-Arg-ANBA-methyl-amide), a dilution reagent for reconstitution, and a dextran sulfate reagent consisting of lyophilized dextran sulfate.
After reconstitution in 10 ml of dilution reagent, the dextran sulfate concentration is 0.02 g/l. The F Xa reagent is reconstituted with the reconstituted dextran sulfate reagent. The substrate reagent, after constitution with 2 ml of deionized water, contains 4 mmol/l Z-D-Leu-Gly-Arg-ANBA-methyl-amide. Dilutions of the substrate reagent were prepared with deionized water. The peptide aldehyde ligands prepared according to example 1 were dissolved in water and used as sample. The assays were carried out automatically in a BCS® XP coagulation analyzer (Siemens Healthcare Diagnostics, Marburg, Germany).
A reaction mix was mixed together as follows:
15 μl of sample (peptide aldehyde ligand B-r-G-R—H or B-f-P—R—H), […]
30 μl of substrate reagent (Z-D-Leu-Gly-Arg-ANBA-methyl-amide).
The reaction rate in mE/min was determined on the basis of the increase in optical density of the reaction mix at a wavelength of 405 nm. For this, the optical density of the reaction mixes was determined in a time interval from 10 to 70 seconds.

T1 sequence (P00742 235-488 limits assumed): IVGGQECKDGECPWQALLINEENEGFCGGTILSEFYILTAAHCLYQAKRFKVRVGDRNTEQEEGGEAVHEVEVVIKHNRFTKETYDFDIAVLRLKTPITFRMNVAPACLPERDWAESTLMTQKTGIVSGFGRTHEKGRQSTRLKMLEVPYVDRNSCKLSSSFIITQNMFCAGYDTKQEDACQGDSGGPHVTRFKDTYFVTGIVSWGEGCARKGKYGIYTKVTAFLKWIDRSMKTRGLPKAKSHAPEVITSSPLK
T1 sequence (P00742 41-179 partner limits assumed): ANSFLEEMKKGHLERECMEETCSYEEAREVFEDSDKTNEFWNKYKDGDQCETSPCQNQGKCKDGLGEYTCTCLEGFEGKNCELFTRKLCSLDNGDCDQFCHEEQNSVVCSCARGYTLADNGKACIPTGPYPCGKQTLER

N=C(N)NCCC[C@@H](C=O)NC(=O)CNC(=O)[C@@H](CCCNC(=N)N)NC(=O)CCC(=O)NCCCOCCOCCOCCCNC(=O)CCCC[C@@H]1SC[C@@H]2NC(=O)N[C@@H]21 [B-r-G-R-H, biotinyl-Ttds-D-Arg-Gly-Arg-H]
1/Reaction rate (CB-r-G-R-H 0.20380 μM, Csubstrate = 0.5 mM): 5.521 min/E | 1/Reaction rate (CB-r-G-R-H 0.20380 μM, Csubstrate = 2 mM): 1.457 min/E | 1/Reaction rate (CB-r-G-R-H 0.20380 μM, Csubstrate = 4 mM): 0.8262 min/E | 1/Reaction rate (CB-r-G-R-H 0.32609 μM, Csubstrate = 0.5 mM): 6.13 min/E | 1/Reaction rate (CB-r-G-R-H 0.32609 μM, Csubstrate = 2 mM): 1.612 min/E | 1/Reaction rate (CB-r-G-R-H 0.32609 μM, Csubstrate = 4 mM): 0.9061 min/E | 1/Reaction rate (CB-r-G-R-H 0.40761 μM, Csubstrate = 0.5 mM): 6.408 min/E | 1/Reaction rate (CB-r-G-R-H 0.40761 μM, Csubstrate = 2 mM): 1.659 min/E | 1/Reaction rate (CB-r-G-R-H 0.40761 μM, Csubstrate = 4 mM): 0.9259 min/E | 1/Reaction rate (CB-r-G-R-H 0.65217 μM, Csubstrate = 0.5 mM): 7.754 min/E | 1/Reaction rate (CB-r-G-R-H 0.65217 μM, Csubstrate = 2 mM): 1.975 min/E | 1/Reaction rate (CB-r-G-R-H 0.65217 μM, Csubstrate = 4 mM): 1.099 min/E | 1/Reaction rate (CB-r-G-R-H 0.81522 μM, Csubstrate = 0.5 mM): 8.403 min/E | 1/Reaction rate (CB-r-G-R-H 0.81522 μM, Csubstrate = 2 mM): 2.115 min/E | 1/Reaction rate (CB-r-G-R-H 0.81522 μM, Csubstrate = 4 mM): 1.177 min/E | 1/Reaction rate (CB-r-G-R-H 1.30435 μM, Csubstrate = 0.5 mM): 12.05 min/E | 1/Reaction rate (CB-r-G-R-H 1.30435 μM, Csubstrate = 2 mM): 2.802 min/E | 1/Reaction rate (CB-r-G-R-H 1.30435 μM, Csubstrate = 4 mM): 1.476 min/E | 1/Reaction rate (CB-r-G-R-H 1.63043 μM, Csubstrate = 0.5 mM): 13.97 min/E | 1/Reaction rate (CB-r-G-R-H 1.63043 μM, Csubstrate = 2 mM): 3.147 min/E | 1/Reaction rate (CB-r-G-R-H 1.63043 μM, Csubstrate = 4 mM): 1.679 min/E | 1/Reaction rate (CB-r-G-R-H 2.60870 μM, Csubstrate = 0.5 mM): 20.14 min/E | 1/Reaction rate (CB-r-G-R-H 2.60870 μM, Csubstrate = 2 mM): 4.627 min/E | 1/Reaction rate (CB-r-G-R-H 2.60870 μM, Csubstrate = 4 mM): 2.274 min/E | 1/Reaction rate (CB-r-G-R-H 3.26087 μM, Csubstrate = 0.5 mM): 26.42 min/E | 1/Reaction rate (CB-r-G-R-H 3.26087 μM, Csubstrate = 2 mM): 5.52 min/E | 1/Reaction rate (CB-r-G-R-H 3.26087 μM, Csubstrate = 4 mM): 2.728 min/E | 1/Reaction rate (CB-r-G-R-H 4.89130 μM, Csubstrate = 0.5 mM): 37.79 min/E | 1/Reaction rate (CB-r-G-R-H 4.89130 μM, Csubstrate = 2 mM): 8.244 min/E | 1/Reaction rate (CB-r-G-R-H 4.89130 μM, Csubstrate = 4 mM): 3.745 min/E | 1/Reaction rate (CB-r-G-R-H 6.52174 μM, Csubstrate = 0.5 mM): 52.69 min/E | 1/Reaction rate (CB-r-G-R-H 6.52174 μM, Csubstrate = 2 mM): 10.45 min/E | 1/Reaction rate (CB-r-G-R-H 6.52174 μM, Csubstrate = 4 mM): 4.819 min/E | 1/Reaction rate (CB-r-G-R-H 8.15217 μM, Csubstrate = 0.5 mM): 62.32 min/E | 1/Reaction rate (CB-r-G-R-H 8.15217 μM, Csubstrate = 2 mM): 12.99 min/E | 1/Reaction rate (CB-r-G-R-H 8.15217 μM, Csubstrate = 4 mM): 5.669 min/E | 1/Reaction rate (CB-r-G-R-H 13.04348 μM, Csubstrate = 0.5 mM): 98.11 min/E | 1/Reaction rate (CB-r-G-R-H 13.04348 μM, Csubstrate = 2 mM): 19.61 min/E | 1/Reaction rate (CB-r-G-R-H 13.04348 μM, Csubstrate = 4 mM): 8.47 min/E | Intersect of regression curve 1/reaction rate vs ligand concentration (Csubstrate 0.5 mM): 2.8743 min/E | Slope of regression curve 1/reaction rate vs ligand concentration (Csubstrate 0.5 mM): 7.3110 min/E μM | Intersect of regression curve 1/reaction rate vs ligand concentration (Csubstrate 2 mM): 1.0169 min/E | Slope of regression curve 1/reaction rate vs ligand concentration (Csubstrate 2 mM): 1.4375 min/E μM | Intersect of regression curve 1/reaction rate vs ligand concentration (Csubstrate 4 mM): 0.7187 min/E | Slope of regression curve 1/reaction rate vs ligand concentration (Csubstrate 4 mM): 0.6037 min/E μM | pKi (intersection of regression curves Csubstrate 2 and 0.5 mM, read-out: Ki2&3 F Xa binding constant): 6.50 | pKi (intersection of regression curves Csubstrate 4 and 0.5 mM, read-out: Ki1&3 F Xa binding constant): 6.49 | pKi (intersection of regression curves Csubstrate 4 and 2 mM, read-out: Ki1&2 F Xa binding constant): 6.45 | binding of the peptide aldehyde with F Xa (reversible or irreversible) (intersections of regression curves not on the x axis): reversible | pKi (read-out: average F Xa binding constant KiM): 6.48
